Test system: 636577-100-R-J1-PDC complex spheroid viability
Experiment: Anticancer human tumor 636577-100-R-J1-PDC patient-derived endometrial adenocarcinoma cell line growth inhibition [GQUAD]
Conditions: for IC50: curve of first compound; for viability, T/C: stronger effect = lower value
Excerpt: DNA G-quadruplex Stabilizer Agents in Combinations in Complex Spheroids
A high-throughput screen of multi-cell type tumor spheroids was designed to identify active combinations of DNA G-quadruplex stabilizer agents and targeted small molecules. Complex spheroids include a stromal component modeled by human endothelial cells (HUVEC) and fibroblasts modeled by human mesenchymal stem cells (MSCs). The concentration ranges selected for each drug and investigational agent were based upon clinically achievable concentrations if the clinical Cmax of the agent was known.
Compounds. The drugs and investigational agents: pidnarulex (CX-5461; NSC782164), APTO-253 (NSC789042), BRACO-19 (NSC847499), peposertib (NSC802822), ceralasertib (NSC780249), elimusertib (NSC800525), camonsertib (NSC841442), AZD-1390 (NSC803789), olaparib (NSC753686), talazoparib (NSC767125), ART-558 (NSC835418), sotorasib (NSC818433), MRTX-1133 (NSC836407), SN-38 (NSC673596), topotecan (NSC609699), etoposide (NSC141540), doxorubicin (NSC123127), gemcitabine (NSC613327), 5-fluorouracil (NSC19893), paclitaxel (NSC125973), vemurafenib (NSC761431), panobinostat (NSC761190), R-306465 (JNJ-16241199; NSC773264), adavosertib (NSC754352), TP-3654 (NSC805149), carboplatin (NSC241240), KSQ-4279 (NSC840948), and staurosporine (NSC755774) were obtained from the National Cancer Institute (NCI) Developmental Therapeutics Program Chemical Repository (34). The FDA-approved anticancer drug set is available from the NCI Developmental Therapeutics Program. […] The stock solutions were prepared in dimethyl sulfoxide (DMSO, Sigma-Aldrich, St. Louis, MO, cat. D2650) at 800-fold the tested concentration and stored at -70 degrees C prior to their use. All drugs and investigational agents were tested over a range starting from a high concentration at or near the clinical Cmax and decreasing in half-log increments. If the clinical Cmax for an agent had not been determined, the highest concentration tested was 10 microM.
2.3 Cell Culture. All cells were maintained in an incubator at 37 degrees C and 5% CO2 with 95% humidity. The PDC lines were cultured according to standard operating procedures established by the NCI PDMR. All PDCs were thawed and cultured in Matrigel-coated flasks prepared with a working solution of 1X Ham's F-12 nutrient mix, without supplementation (Invitrogen, cat. 11765054), 100 U/mL penicillin-streptomycin (Invitrogen, cat. 15140122), and 2.5% Matrigel (Corning Inc., cat. 354248) for the first three passages. The 857933-349-R-J2-PDC line was cultured in 6C/Colon 1B media, which includes advanced DMEM/F-12 (Thermo Fisher Scientific, cat. 12634028), 10 mM HEPES (Thermo Fisher Scientific, cat. 15630080), 1X GlutaMAX supplement (Thermo Fisher Scientific, cat. 35050061), 0.1 mg/mL primocin (InvivoGen, cat. ant-pm-2), 10% defined fetal bovine serum, heat inactivated (HyClone Laboratories Inc., cat. SH30070.03HI), 50% L-WRN conditioned media (ATCC, cat. CRL-3276), 1.25 mM N-Acetyl-L-cysteine (Sigma-Aldrich, cat. A9165), 10 mM nicotinamide (Sigma-Aldrich, cat. N0636), 1X B-27 supplement (Thermo Fisher Scientific, cat. 17504044), 1X N-2 supplement (Thermo Fisher Scientific, cat. 17502048), 10 microM Y-27632 dihydrochloride (Tocris Bioscience, cat. 1254), and 50 ng/mL human EGF recombinant protein (Thermo Fisher Scientific, cat. PHG0311). The 485176-168-R4-J1-PDC line was cultured in Panc media, which includes all 6C/Colon 1B media components plus 100 ng/mL human FGF-10 (Thermo Fisher Scientific, cat. 100-26), 500 nM SB-431542 (Selleckchem, cat. S1067), and gastrin (Tocris, cat. 3006).
[…]

[1] = second compound 0.0316 µM, first compound 0.0316 µM
[2] = second compound 0.0316 µM, first compound 0.1 µM
[3] = second compound 0.0316 µM, first compound 0.316 µM
[4] = second compound 0.0316 µM, first compound 1 µM
[5] = second compound 0.0316 µM, first compound 3.16 µM
[6] = second compound 0.0316 µM, first compound 10 µM
[7] = second compound 0.1 µM, first compound 0.0316 µM
[8] = second compound 0.1 µM, first compound 0.1 µM
[9] = second compound 0.1 µM, first compound 0.316 µM
[10] = second compound 0.1 µM, first compound 1 µM
[11] = second compound 0.1 µM, first compound 3.16 µM
[12] = second compound 0.1 µM, first compound 10 µM
[13] = second compound 0.316 µM, first compound 0.0316 µM
[14] = second compound 0.316 µM, first compound 0.1 µM
[15] = second compound 0.316 µM, first compound 0.316 µM
[16] = second compound 0.316 µM, first compound 1 µM
[17] = second compound 0.316 µM, first compound 3.16 µM
[18] = second compound 0.316 µM, first compound 10 µM
[19] = second compound 1 µM, first compound 0.0316 µM
[20] = second compound 1 µM, first compound 0.1 µM
[21] = second compound 1 µM, first compound 0.316 µM
[22] = second compound 1 µM, first compound 1 µM
[23] = second compound 1 µM, first compound 3.16 µM
[24] = second compound 1 µM, first compound 10 µM
[25] = second compound 3.16 µM, first compound 0.0316 µM
[26] = second compound 3.16 µM, first compound 0.1 µM
[27] = second compound 3.16 µM, first compound 0.316 µM
[28] = second compound 3.16 µM, first compound 1 µM
[29] = second compound 3.16 µM, first compound 3.16 µM
[30] = second compound 3.16 µM, first compound 10 µM
[31] = second compound 10 µM, first compound 0.0316 µM
[32] = second compound 10 µM, first compound 0.1 µM
[33] = second compound 10 µM, first compound 0.316 µM
[34] = second compound 10 µM, first compound 1 µM
[35] = second compound 10 µM, first compound 3.16 µM
[36] = second compound 10 µM, first compound 10 µM
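Also: viability read after seven days of drug exposure.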
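For viability, T/C in this document: luminescence signal used as a proxy for viable cells; 100% = DMSO vehicle control wells.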

`COc1ccc([C@@H](O)c2cc(-c3ncnc4cc(N5CCOCC5)ccc34)c(F)cc2Cl)nn1` + CN(C)c1ccc(Nc2c3ccc(NC(=O)CCN4CCCC4)cc3nc3cc(NC(=O)CCN4CCCC4)ccc23)cc1 gave an IC50 (second compound 0.0316 µM) of 1560 nM, an IC50 (second compound 0.1 µM) of 486 nM and an IC50 (second compound 0.316 µM) of 466 nM. For the same compound, the IC50 (second compound 1 µM) was 153 nM, the IC50 (second compound 3.16 µM) was less than 31.6 nM and the IC50 (second compound 10 µM) was less than 31.6 nM. The viability, T/C [1] was 93.7%, the viability, T/C [2] was 98% and the viability, T/C [3] was 88.5%. It also gave a viability, T/C [4] of 55.3%, a viability, T/C [5] of 39.1% and a viability, T/C [6] of 20.1%. For the same compound, the viability, T/C [7] was 102%, the viability, T/C [8] was 63.5% and the viability, T/C [9] was 58.3%. It also gave a viability, T/C [10] of 44%, a viability, T/C [11] of 37% and a viability, T/C [12] of 19.8%. The viability, T/C [13] was 77.5%, the viability, T/C [14] was 77.2% and the viability, T/C [15] was 61%. It also gave a viability, T/C [16] of 27.6%, a viability, T/C [17] of 24% and a viability, T/C [18] of 12.1%. The viability, T/C [19] was 73.2%, the viability, T/C [20] was 47.4% and the viability, T/C [21] was 50.6%. For the same compound, the viability, T/C [22] was 25.5%, the viability, T/C [23] was 17.4% and the viability, T/C [24] was 11.7%. It also gave a viability, T/C [25] of 35.3%, a viability, T/C [26] of 40.5% and a viability, T/C [27] of 24%. For the same compound, the viability, T/C [28] was 14.5%, the viability, T/C [29] was 9.36% and the viability, T/C [30] was 7.69%. It also gave a viability, T/C [31] of 5.37%, a viability, T/C [32] of 4.81% and a viability, T/C [33] of 3.18%. For the same compound, the viability, T/C [34] was 2.32%, the viability, T/C [35] was 1.95% and the viability, T/C [36] was 0.58%.
In the case of `O=C(c1cc(Cc2n[nH]c(=O)c3ccccc23)ccc1F)N1CCN(C(=O)C2CC2)CC1` + CN(C)c1ccc(Nc2c3ccc(NC(=O)CCN4CCCC4)cc3nc3cc(NC(=O)CCN4CCCC4)ccc23)cc1, the IC50 (second compound 0.0316 µM) is reported as 1580 nM, the IC50 (second compound 0.1 µM) is reported as 1450 nM and the IC50 (second compound 0.316 µM) is reported as 3730 nM. For the same compound, the IC50 (second compound 1 µM) was 1360 nM, the IC50 (second compound 3.16 µM) was less than 31.6 nM and the IC50 (second compound 10 µM) was less than 31.6 nM. It also gave a viability, T/C [1] of 93.1%, a viability, T/C [2] of 54.9% and a viability, T/C [3] of 71%. It also gave a viability, T/C [4] of 63.8%, a viability, T/C [5] of 37.7% and a viability, T/C [6] of 33.2%. It also gave a viability, T/C [7] of 69.7%, a viability, T/C [8] of 54.2% and a viability, T/C [9] of 52.1%. The viability, T/C [10] was 57.7%, the viability, T/C [11] was 46.2% and the viability, T/C [12] was 31.7%. The viability, T/C [13] was 50.3%, the viability, T/C [14] was 53.6% and the viability, T/C [15] was 64.3%. The viability, T/C [16] was 61.5%, the viability, T/C [17] was 50.1% and the viability, T/C [18] was 34.1%. The viability, T/C [19] was 63.7%, the viability, T/C [20] was 62.4% and the viability, T/C [21] was 60.5%. It also gave a viability, T/C [22] of 54.3%, a viability, T/C [23] of 38.9% and a viability, T/C [24] of 28.8%. For the same compound, the viability, T/C [25] was 29.2%, the viability, T/C [26] was 40.2% and the viability, T/C [27] was 34.2%. For the same compound, the viability, T/C [28] was 30.8%, the viability, T/C [29] was 25.6% and the viability, T/C [30] was 21.1%. The viability, T/C [31] was 5.92%, the viability, T/C [32] was 4.61% and the viability, T/C [33] was 4.06%. It also gave a viability, T/C [34] of 5.25%, a viability, T/C [35] of 6.06% and a viability, T/C [36] of 4.36%.

Source: PubChem BioAssay AID2060504 (Molecular Pharmacology Branch, DTP, NCI, 2025)
